According to publication PMC12177760, “In Silico Discovery of a Novel Antiviral Scaffold for SARS-CoV‑2 Targeting the Spike Glycoprotein through the Fatty Acid Binding Pocket” (ACS Omega, 2025):
pEC50: −log10 of the molar value.

Tested on: SARS-CoV-2 Delta variant in Vero E6 cells
Experiment: microbe, parasite or virus in culture
Assay type: cell-based

CC(c1ccc(-n2cncn2)cc1)N(C)C(=O)CCC(=O)N1CCC(c2ccccc2)=N1 (centres unmarked) [compound 36]
pEC50 (Severe acute respiratory syndrome coronavirus 2, Vero C1008, read-out: EC50 (inhibition of Delta variant-induced CPE)): 5.24
inhibition at 33 µM (Severe acute respiratory syndrome coronavirus 2, Vero C1008, 33 μM, read-out: maximum inhibition of CPE): 78%
